From patent US12655106B2 (Eikonizo Therapeutics, Inc., priority 2021, dated 2026) come the findings set out here.

What is called IC50 is the concentration at which inhibition is half-maximal. Read a high IC50 as weaker potency in that assay.

In one assay the target is T1, Full length Human HDAC8 (Homo sapiens, UniProt Q9BY41).
T1 construct: Full length Human HDAC8; HIS (N); host or cells: baculovirus expression system
T1 sequence (Q9BY41 1-377): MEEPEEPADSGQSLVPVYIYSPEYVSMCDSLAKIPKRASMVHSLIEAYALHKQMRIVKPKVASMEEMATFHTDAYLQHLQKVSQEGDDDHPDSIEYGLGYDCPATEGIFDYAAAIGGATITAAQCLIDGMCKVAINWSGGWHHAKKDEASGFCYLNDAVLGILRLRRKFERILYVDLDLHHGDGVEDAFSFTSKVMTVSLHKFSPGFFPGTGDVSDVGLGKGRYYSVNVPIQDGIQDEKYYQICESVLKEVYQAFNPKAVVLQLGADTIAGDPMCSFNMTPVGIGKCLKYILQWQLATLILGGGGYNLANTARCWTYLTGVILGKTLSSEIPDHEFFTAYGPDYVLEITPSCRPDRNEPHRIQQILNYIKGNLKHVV
The assay can be described thus: Caliper endpoint assay for HDAC enzymatic activity (HDAC8). The class given is biochemical. To be noted: in vitro enzymatic, 30 min pre-incubation, 1 μM substrate peptide.

A further assay deals with T2, Full length Human HDAC6 (Homo sapiens, UniProt Q9UBN7).
T2 construct: Full length Human HDAC6; FLAG (C); host or cells: baculovirus expression system
T2 sequence (Q9UBN7 1-1215): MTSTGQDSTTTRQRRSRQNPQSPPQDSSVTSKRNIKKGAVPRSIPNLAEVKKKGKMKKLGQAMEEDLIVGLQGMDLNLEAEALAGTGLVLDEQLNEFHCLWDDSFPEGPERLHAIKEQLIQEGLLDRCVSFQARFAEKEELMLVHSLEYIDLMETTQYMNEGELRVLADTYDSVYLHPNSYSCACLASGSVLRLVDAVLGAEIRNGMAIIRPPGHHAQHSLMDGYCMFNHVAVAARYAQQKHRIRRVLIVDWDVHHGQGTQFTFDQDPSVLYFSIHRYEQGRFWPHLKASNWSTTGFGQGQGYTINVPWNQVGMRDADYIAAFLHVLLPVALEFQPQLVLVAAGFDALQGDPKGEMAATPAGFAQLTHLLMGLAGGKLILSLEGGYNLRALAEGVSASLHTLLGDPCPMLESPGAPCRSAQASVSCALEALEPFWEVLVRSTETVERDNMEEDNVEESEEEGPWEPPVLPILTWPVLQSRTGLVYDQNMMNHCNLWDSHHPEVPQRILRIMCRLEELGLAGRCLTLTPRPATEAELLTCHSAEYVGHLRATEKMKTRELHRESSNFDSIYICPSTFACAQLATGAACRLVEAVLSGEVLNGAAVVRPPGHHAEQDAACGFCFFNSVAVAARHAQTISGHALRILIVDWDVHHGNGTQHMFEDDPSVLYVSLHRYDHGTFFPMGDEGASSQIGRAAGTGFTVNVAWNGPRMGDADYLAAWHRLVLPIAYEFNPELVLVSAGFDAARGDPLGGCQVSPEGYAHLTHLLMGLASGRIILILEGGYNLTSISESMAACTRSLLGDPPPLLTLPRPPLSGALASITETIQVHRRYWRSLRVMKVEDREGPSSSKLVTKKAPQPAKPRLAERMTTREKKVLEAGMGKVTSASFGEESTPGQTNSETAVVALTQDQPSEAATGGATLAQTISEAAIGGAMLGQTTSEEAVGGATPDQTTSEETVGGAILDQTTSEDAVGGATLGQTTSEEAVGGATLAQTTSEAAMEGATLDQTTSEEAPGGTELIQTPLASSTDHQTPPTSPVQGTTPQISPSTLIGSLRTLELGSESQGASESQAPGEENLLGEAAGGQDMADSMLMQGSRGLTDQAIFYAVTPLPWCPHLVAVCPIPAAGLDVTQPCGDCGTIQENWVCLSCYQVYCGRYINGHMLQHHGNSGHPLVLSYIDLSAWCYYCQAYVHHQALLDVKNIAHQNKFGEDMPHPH
In words: Caliper endpoint assay for HDAC enzymatic activity (HDAC6). The class given is biochemical. To be noted: for IC50: in vitro enzymatic, Caliper endpoint assay, 30 min pre-incubation, 1 μM substrate peptide; for Selectivity (6 v 8): ratio of HDAC8 IC50/HDAC6 IC50.

Consider `O=C(NO)c1cc(F)c2c(c1)CCN(C[C@@H]1CCCCO1)C2` (single isomer, unassigned) [Compound 174], for which the IC50 against Full length Human HDAC8 lay within 10 to 100 µM. For the same compound, on Full length Human HDAC6, the IC50 was 0.001 to 0.1 µM and the “Selectivity (6 v 8)” value is listed as “IV (IV: >100-1000)”.
On the same counts, the results for `CC[C@@H]1Cc2c(F)cc(C(=O)NO)cc2CN1C1CC2(CCCCC2)C1` (single isomer, unassigned) [Compound 232] are 10 to 100 µM, 0.1 to 1 µM and “IV (IV: >100-1000)”.
In the same order, the values of `CN1CCC[C@]2(CC[C@H]2N2CCc3cc(C(=O)NO)cc(F)c3C2)C1` (single isomer, unassigned) [Compound 363] are 10 to 100 µM, 0.001 to 0.1 µM and “IV (IV: >100-1000)”.
On the same counts, the results for `CN1CC[C@]2(CC[C@@H]2N2CCc3cc(C(=O)NO)cc(F)c3C2)C1` (single isomer, unassigned) [Compound 330] are 10 to 100 µM, 0.001 to 0.1 µM and “IV (IV: >100-1000)”.
For `O=C(NO)c1cc(F)c2c(c1)CCN(C1CCC3(CCCCC3)CC1)C2` [Compound 182, 8-fluoro-2-spiro[5.5]undecan-3-yl-3,4-dihydro-1H-isoquinoline-6-carbohydroxamic acid], the IC50 against Full length Human HDAC8 lay within 10 to 100 µM; at Full length Human HDAC6 it was 0.001 to 0.1 µM. Moreover, the “Selectivity (6 v 8)” value at Full length Human HDAC6 is “IV (IV: >100-1000)”.
For the compound `CN1Cc2cc(C(=O)NO)ccc2[C@H]2CCCN21` (single isomer, unassigned) [Compound 161], the IC50 on Full length Human HDAC8 was 1 to 10 µM; on Full length Human HDAC6, 0.1 to 1 µM.
In the case of `O=C(NO)c1cc(F)c2c(c1)CCN(C1CCC3(CCCC3)CC1)C2` [Compound 193, 8-fluoro-2-spiro[4.5]decan-8-yl-3,4-dihydro-1H-isoquinoline-6-carbohydroxamic acid], the IC50 at Full length Human HDAC8 was in the range of 10 to 100 µM. On Full length Human HDAC6, the IC50 lay in the range of 0.001 to 0.1 µM and the “Selectivity (6 v 8)” value was “V (V: >1000)”.
In the same order, the values of `O=C(NO)c1cc(F)c2c(c1)C[C@H]1CCCCN1C2` [Compound 94] are 1 to 10 µM, 0.1 to 1 µM and “III (III: >10-100)”.
In the same order, the values of `O=C(NO)c1cc(F)c2c(c1)CCN(C1CC3(CCN(C4CC4)CC3)C1)C2` [Compound 607, 2-(7-cyclopropyl-7-azaspiro[3.5]nonan-2-yl)-8-fluoro-3,4-dihydro-1H-isoquinoline-6-carbohydroxamic acid] are 10 to 100 µM, 0.001 to 0.1 µM and “IV (IV: >100-1000)”.
In the same order, the values of `O=C(NO)c1cc(F)c(CN2C3CCC2CC(=NO)C3)cc1F` [Compound 54] are 0.1 to 1 µM, 0.001 to 0.1 µM and “III (III: >10-100)”.
On to `CC(=O)N1CC[C@@H](N2CCc3cc(C(=O)NO)cc(F)c3C2)CC12CCC2` (single isomer, unassigned) [Compound 442], for which, on Full length Human HDAC8, the IC50 was in the range of 10 to 100 µM. Besides, at Full length Human HDAC6, the IC50 was in the range of 0.001 to 0.1 µM and the “Selectivity (6 v 8)” value is “IV (IV: >100-1000)”.
With `CC[C@@H]1Cc2c(F)cc(C(=O)NO)cc2CN1C1COC1` (single isomer, unassigned) [Compound 600], the IC50 was 1 to 10 µM at Full length Human HDAC8 and 0.001 to 0.1 µM at Full length Human HDAC6. Moreover, the “Selectivity (6 v 8)” value on Full length Human HDAC6 is recorded as “IV (IV: >100-1000)”.
On the same counts, the results for `CC[C@@H](c1ccc(C(=O)NO)cc1F)N1CCC2(CCCCC2)C1` (single isomer, unassigned) [Compound 237] are 1 to 10 µM, 0.1 to 1 µM and “II (II: >1-10)”.
Regarding `O=C(NO)c1cc(F)c2c(c1)CCN(CC1C3CC1CN(C1CC1)C3)C2` (centres unmarked) [Compound 494, 2-[(3-cyclopropyl-3-azabicyclo[3.1.1]heptan-6-yl)methyl]-8-fluoro-3,4-dihydro-1H-isoquinoline-6-carbohydroxamic acid], the IC50 against Full length Human HDAC8 fell in the range of 1 to 10 µM. On Full length Human HDAC6, the IC50 was 0.001 to 0.1 µM and the “Selectivity (6 v 8)” value was “III (III: >10-100)”.
On the same counts, the results for `CN1CC[C@H](N2CCc3cc(C(=O)NO)cc(F)c3C2)CC12CCC2` (single isomer, unassigned) [Compound 437] are 10 to 100 µM, 0.001 to 0.1 µM and “IV (IV: >100-1000)”.
On the same counts, the results for `O=C(NO)c1cc(F)c2c(c1)CCN(C1CCOC3(CCC3)C1)C2` (single isomer, unassigned) [Compound 446] are 10 to 100 µM, 0.001 to 0.1 µM and “V (V: >1000)”.
On the same counts, the results for `O=C(NO)c1cc(F)c2c(c1)C[C@@H]1CCCN1C2` (single isomer, unassigned) [Compound 119] are 10 to 100 µM, 0.1 to 1 µM and “III (III: >10-100)”.
Consider `O=C(NO)c1cc(F)c2c(c1)CN1CCCC[C@@H]1C2` [Compound 145], for which the IC50 at Full length Human HDAC8 lay within 10 to 100 µM; at Full length Human HDAC6, 0.001 to 0.1 µM. Also, the “Selectivity (6 v 8)” value at Full length Human HDAC6 is reported as “IV (IV: >100-1000)”.
On the same counts, the results for `CN1CC[C@@H](N2CCc3cc(C(=O)NO)cc(F)c3C2)CC12CCC2` (single isomer, unassigned) [Compound 438] are 1 to 10 µM, 0.001 to 0.1 µM and “IV (IV: >100-1000)”.
In the same order, the values of `CN1CCCCC12CC(N1CCc3cc(C(=O)NO)cc(F)c3C1)C2` (centres unmarked) [Compound 352, 8-fluoro-2-(5-methyl-5-azaspiro[3.5]nonan-2-yl)-3,4-dihydro-1H-isoquinoline-6-carbohydroxamic acid] are above 100 µM, 0.001 to 0.1 µM and “V (V: >1000)”.
On the same counts, the results for `CC[C@@H]1Cc2c(F)cc(C(=O)NO)cc2CN1CC1CC2CCC(C1)N2C` (single isomer, unassigned) [Compound 571] are 1 to 10 µM, 0.1 to 1 µM and “III (III: >10-100)”.
On Full length Human HDAC8, `CC[C@@H]1Cc2c(F)cc(C(=O)NO)cc2CN1C1CC2(CCN(C(C)=O)CC2)C1` (single isomer, unassigned) [Compound 602] came in with an IC50 of 10 to 100 µM. At Full length Human HDAC6, the IC50 was in the range of 0.1 to 1 µM and the “Selectivity (6 v 8)” value is listed as “III (III: >10-100)”.
At Full length Human HDAC8, `CC[C@@H]1Cc2c(F)cc(C(=O)NO)cc2CN1C1CCCC1` (single isomer, unassigned) [Compound 580] returned an IC50 of 10 to 100 µM. Further, at Full length Human HDAC6, the IC50 was 0.1 to 1 µM and the “Selectivity (6 v 8)” value was “III (III: >10-100)”.
On the same counts, the results for `CC[C@@H]1Cc2c(F)cc(C(=O)NO)cc2CN1C1CCC1` (single isomer, unassigned) [Compound 596] are 10 to 100 µM, 0.001 to 0.1 µM and “IV (IV: >100-1000)”.
As for `CC[C@@H]1Cc2c(F)cc(C(=O)NO)cc2CN1C[C@H]1CCCCO1` (single isomer, unassigned) [Compound 230], the IC50 against Full length Human HDAC8 was 1 to 10 µM. In addition, at Full length Human HDAC6, the IC50 lay within 0.001 to 0.1 µM and the “Selectivity (6 v 8)” value is “III (III: >10-100)”.
In the same order, the values of `CC[C@@H]1Cc2c(F)cc(C(=O)NO)cc2CN1C1CC2(C1)CN(C)C2` (single isomer, unassigned) [Compound 584] are 10 to 100 µM, 0.1 to 1 µM and “IV (IV: >100-1000)”.
Regarding `CC(=O)N1CC2(C[C@@H](N3CCc4cc(C(=O)NO)cc(F)c4C3)CCO2)C1` (single isomer, unassigned) [Compound 454], the IC50 against Full length Human HDAC8 lay within 10 to 100 µM. Besides, at Full length Human HDAC6, the IC50 is 0.001 to 0.1 µM and the “Selectivity (6 v 8)” value is “IV (IV: >100-1000)”.
